Laboratory results as given in patent publication US11034650B2, “Compounds useful for treating a Mannheimia haemolytica or Histophilus somni infection” (Intervet Inc., priority 2016, dated 2021).
In brackets after ≈: the same amount, converted by molar mass.

Assays:
Assay type in all cases: cell-based
[1] = tested on: Mannheimia haemolytica MH 6357 (M7/2, reference strain, cattle infection strain); assay: MIC, broth-microdilution (CLSI VET01-A4), strain MH 6357; conditions: Mannheimia haemolytica strain MH 6357, broth-microdilution; unit assumed
Procedure, shortened: (§1)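 Compounds were serially diluted twofold in microdilution trays. Growth was judged by eye, and the MIC was the lowest concentration showing no turbidity. Results were interpreted per CLSI VET01-S3.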

[2] = tested on: Mannheimia haemolytica MH 6374 (ATCC 33396, reference strain); assay: MIC, broth-microdilution (CLSI VET01-A4), strain MH 6374; conditions: Mannheimia haemolytica strain MH 6374, broth-microdilution; unit assumed
Procedure, shortened: as §1

[3] = tested on: Mannheimia haemolytica MH 10720 (154, BRD field isolate); assay: MIC, broth-microdilution (CLSI VET01-A4), strain MH 10720; conditions: Mannheimia haemolytica strain MH 10720, broth-microdilution; unit assumed
Procedure, shortened: as §1

[4] = tested on: Mannheimia haemolytica MH 12587 (1071, BRD field isolate, macrolide-resistance: erm+, E+); assay: MIC, broth-microdilution (CLSI VET01-A4), strain MH 12587; conditions: Mannheimia haemolytica strain MH 12587, broth-microdilution; unit assumed
Procedure, shortened: as §1

[5] = tested on: Mannheimia haemolytica MH 13065 (XB0446-6003.9, BRD field isolate); assay: MIC, broth-microdilution (CLSI VET01-A4), strain MH 13065; conditions: Mannheimia haemolytica strain MH 13065, broth-microdilution; unit assumed
Procedure, shortened: as §1

[6] = tested on: Mannheimia haemolytica MH 13093 (XB0472-6014.1, BRD field isolate); assay: MIC, broth-microdilution (CLSI VET01-A4), strain MH 13093; conditions: Mannheimia haemolytica strain MH 13093, broth-microdilution; unit assumed
Procedure, shortened: as §1

[7] = tested on: Pasteurella multocida PM 6267 (P 2225 (L386), reference strain, mouse infection strain); assay: MIC, broth-microdilution (CLSI VET01-A4), strain PM 6267; conditions: Pasteurella multocida strain PM 6267, broth-microdilution; unit assumed
Procedure, shortened: as §1

[8] = tested on: Pasteurella multocida PM 6391 (ATCC 43137, reference strain); assay: MIC, broth-microdilution (CLSI VET01-A4), strain PM 6391; conditions: Pasteurella multocida strain PM 6391, broth-microdilution; unit assumed
Procedure, shortened: as §1

[9] = tested on: Pasteurella multocida PM 10775 (080130003051, BRD field isolate); assay: MIC, broth-microdilution (CLSI VET01-A4), strain PM 10775; conditions: Pasteurella multocida strain PM 10775, broth-microdilution; unit assumed
Procedure, shortened: as §1

[10] = tested on: Pasteurella multocida PM 12080 (IV102277-0093, BRD field isolate); assay: MIC, broth-microdilution (CLSI VET01-A4), strain PM 12080; conditions: Pasteurella multocida strain PM 12080, broth-microdilution; unit assumed
Procedure, shortened: as §1

Compound	MIC MH 6357 [1]	MIC MH 6374 [2]	MIC MH 10720 [3]	MIC MH 12587 [4]	MIC MH 13065 [5]	MIC MH 13093 [6]	MIC PM 6267 [7]	MIC PM 6391 [8]	MIC PM 10775 [9]	MIC PM 12080 [10]
CC(C)([C@H](NC(=O)c1ccc(C#Cc2ccc(CNC3CCC3)cc2)cc1)C(=O)NO)S(C)(=O)=O [Compound 263]	6.3 µg/mL (≈ 12.7 µM)	3.1 µg/mL (≈ 6.23 µM)	0.8 µg/mL (≈ 1.61 µM)	6.3 µg/mL (≈ 12.7 µM)	3.1 µg/mL (≈ 6.23 µM)	3.1 µg/mL (≈ 6.23 µM)	≤ 0.1 µg/mL	0.4 µg/mL (≈ 0.804 µM)	≤ 0.1 µg/mL	0.2 µg/mL (≈ 0.402 µM)
CC(C)([C@H](NC(=O)c1ccc(C#Cc2ccc(CNC3CCCC3)cc2)cc1)C(=O)NO)S(C)(=O)=O [Compound 264]	12.5 µg/mL (≈ 24.4 µM)	12.5 µg/mL (≈ 24.4 µM)	1.6 µg/mL (≈ 3.13 µM)	12.5 µg/mL (≈ 24.4 µM)	6.3 µg/mL (≈ 12.3 µM)	6.3 µg/mL (≈ 12.3 µM)	0.2 µg/mL (≈ 0.391 µM)	0.8 µg/mL (≈ 1.56 µM)	≤ 0.1 µg/mL	0.4 µg/mL (≈ 0.782 µM)
CCCNCc1ccc(C#Cc2ccc(C(=O)N[C@H](C(=O)NO)C(C)(C)S(C)(=O)=O)cc2)cc1 [Compound 265]	6.3 µg/mL (≈ 13 µM)	6.3 µg/mL (≈ 13 µM)	0.8 µg/mL (≈ 1.65 µM)	6.3 µg/mL (≈ 13 µM)	3.1 µg/mL (≈ 6.38 µM)	3.1 µg/mL (≈ 6.38 µM)	≤ 0.1 µg/mL	0.8 µg/mL (≈ 1.65 µM)	≤ 0.1 µg/mL	0.4 µg/mL (≈ 0.824 µM)
CC(C)([C@H](NC(=O)c1ccc(C#Cc2ccc(CNCC#N)cc2)cc1)C(=O)NO)S(C)(=O)=O [Compound 266]	0.8 µg/mL (≈ 1.66 µM)	0.4 µg/mL (≈ 0.829 µM)	≤ 0.1 µg/mL	1.6 µg/mL (≈ 3.32 µM)	0.8 µg/mL (≈ 1.66 µM)	0.8 µg/mL (≈ 1.66 µM)	≤ 0.1 µg/mL	≤ 0.1 µg/mL	≤ 0.1 µg/mL	≤ 0.1 µg/mL
CC(C)([C@H](NC(=O)c1ccc(C#Cc2ccc(CNCc3ccnc(Cl)c3)cc2)cc1)C(=O)NO)S(C)(=O)=O [Compound 268]	0.4 µg/mL (≈ 0.703 µM)	0.4 µg/mL (≈ 0.703 µM)	≤ 0.1 µg/mL	0.8 µg/mL (≈ 1.41 µM)	0.2 µg/mL (≈ 0.351 µM)	0.4 µg/mL (≈ 0.703 µM)	≤ 0.1 µg/mL	≤ 0.1 µg/mL	≤ 0.1 µg/mL	≤ 0.1 µg/mL
CC(C)([C@H](NC(=O)c1ccc(C#Cc2ccc(CNCc3cccs3)cc2)cc1)C(=O)NO)S(C)(=O)=O [Compound 271]	0.4 µg/mL (≈ 0.741 µM)	0.2 µg/mL (≈ 0.371 µM)	≤ 0.1 µg/mL	0.8 µg/mL (≈ 1.48 µM)	0.2 µg/mL (≈ 0.371 µM)	0.4 µg/mL (≈ 0.741 µM)	≤ 0.1 µg/mL	≤ 0.1 µg/mL	≤ 0.1 µg/mL	≤ 0.1 µg/mL
Cc1ccc(CNCc2ccc(C#Cc3ccc(C(=O)N[C@H](C(=O)NO)C(C)(C)S(C)(=O)=O)cc3)cc2)cc1 [Compound 272]	0.8 µg/mL (≈ 1.46 µM)	0.4 µg/mL (≈ 0.73 µM)	≤ 0.1 µg/mL	1.6 µg/mL (≈ 2.92 µM)	0.2 µg/mL (≈ 0.365 µM)	0.8 µg/mL (≈ 1.46 µM)	≤ 0.1 µg/mL	0.2 µg/mL (≈ 0.365 µM)	≤ 0.1 µg/mL	≤ 0.1 µg/mL
CC(C)([C@H](NC(=O)c1ccc(C#Cc2ccc(CNCC3CCCO3)cc2)cc1)C(=O)NO)S(C)(=O)=O (some centres unmarked) [Compound 273]	6.3 µg/mL (≈ 11.9 µM)	3.1 µg/mL (≈ 5.88 µM)	0.8 µg/mL (≈ 1.52 µM)	6.3 µg/mL (≈ 11.9 µM)	3.1 µg/mL (≈ 5.88 µM)	6.3 µg/mL (≈ 11.9 µM)	≤ 0.1 µg/mL	0.2 µg/mL (≈ 0.379 µM)	≤ 0.1 µg/mL	≤ 0.1 µg/mL
CC(C)(O)[C@H](NC(=O)c1ccc(C#Cc2ccc(CNCc3ccncc3)cc2)cc1)C(=O)NO [Compound 275]	0.4 µg/mL (≈ 0.846 µM)	0.2 µg/mL (≈ 0.423 µM)	≤ 0.1 µg/mL	0.4 µg/mL (≈ 0.846 µM)	0.2 µg/mL (≈ 0.423 µM)	0.4 µg/mL (≈ 0.846 µM)	≤ 0.1 µg/mL	≤ 0.1 µg/mL	≤ 0.1 µg/mL	≤ 0.1 µg/mL
CC(C)(C(NC(=O)c1ccc(C#Cc2ccc(CNCc3ccccc3)cc2)cc1)C(=O)NO)[N+](=O)[O-] (centres unmarked) [Compound 276]	0.8 µg/mL (≈ 1.6 µM)	0.8 µg/mL (≈ 1.6 µM)	≤ 0.1 µg/mL	0.8 µg/mL (≈ 1.6 µM)	0.4 µg/mL (≈ 0.799 µM)	0.8 µg/mL (≈ 1.6 µM)	≤ 0.1 µg/mL	0.4 µg/mL (≈ 0.799 µM)	≤ 0.1 µg/mL	≤ 0.1 µg/mL
CC(C)(C(NC(=O)c1ccc(C#Cc2ccc(CNCc3ccc(Cl)cc3)cc2)cc1)C(=O)NO)[N+](=O)[O-] (centres unmarked) [Compound 277]	1.6 µg/mL (≈ 2.99 µM)	1.6 µg/mL (≈ 2.99 µM)	0.4 µg/mL (≈ 0.748 µM)	3.1 µg/mL (≈ 5.79 µM)	1.6 µg/mL (≈ 2.99 µM)	1.6 µg/mL (≈ 2.99 µM)	0.4 µg/mL (≈ 0.748 µM)	0.8 µg/mL (≈ 1.5 µM)	≤ 0.1 µg/mL	0.4 µg/mL (≈ 0.748 µM)
